Values after ≈ are worked out from the molar mass of the structure shown. Where two headings read alike, the source gives them in different places.
Experiments:
wild type DHB4 E. coli = assay: Bacterial inhibition by ebselen derivates, MIC; settings: for MIC: Escherichia coli, DHB4E.COLI, 4 h, read-out: MIC for wild type DHB4 E. coli; for MIC for wild type DHB4 E. coli: LB, 37° C., 4 hrs, OD600 below 10% of DMSO control; for sensitivity of gshA^− or gor^− strains compared with wt strain: E. coli DHB4 strains
Procedure: (§4) E. coli DHB4 strains wt, gshA^−, gor^−, oxyR^− were cultured overnight in LB medium. […] OD 600 was detected and DMSO was used as the control. […] The data are the means of two experiments.

Gor^- DHB4 E. coli = assay: Bacterial inhibition by ebselen derivates, MIC; settings: for MIC: Escherichia coli, 4 h, read-out: MIC for Gor^- DHB4 E. coli; for MIC for Gor^- DHB4 E. coli: LB, 37° C., 4 hrs, OD600 below 10% of DMSO control
Procedure: as §4

E. coli TrxR [1] = molecular target: T1, E. coli TrxR (Escherichia coli (strain K12), UniProt P0A9P4); assay: Measurement of IC50 of ebselen derivates for E. coli TrxR (DTNB assay); assay type: biochemical
Procedure: For screening of different classes of ebselen derivatives as inhibitors of E. coli TrxR, the compounds of different concentration (1-40 μM) were incubated for a minute with mixture containing 100 nM E. coli TrxR, 200 μM NADPH and 2 μM of E. coli Trx. Then 1 mM DTNB was added and the enzyme activity was followed by the initial linear increase at A412 for 5 minutes.
(§1) All the benzisoselenazol-3(2H)-one and bisbenzisoselenazol-3(2H)-one derivatives were tested as potential E. coli TrxR inhibitors by standard DTNB assay. IC50 values were calculated by following the activity of TrxR reducing DTNB by NADPH at 412 nm. The reactions were started by adding 1 mM DTNB to the mixture of 100 nM TrxR, 2 μM Trx, 240 μM NADPH, and different concentration of inhibitor (1-40 μM). […] The reactions were started by adding 6 nM TrxR at room temperature. Inhibition constants (Ki) for all the compounds were measured from Dixon plot (FIGS. 12A-12F), which plots 1/v versus [I] (v=A412/min, I=Inhibitor concentration, FIGS. 12A-12F). Measured IC50 and Ki values (Table 5) indicate that the compounds EbSe 6-9, 12-16 are potent inhibitors for E. coli TrxR. The presence of covalent bond between selenium and nitrogen is so important for the biological property of ebselen derivatives.

E. coli TrxR [2] = molecular target: T1, E. coli TrxR; assay: Measurement of Ki of ebselen derivates for E. coli TrxR (Dixon plot, DTNB assay); assay type: biochemical
Procedure: The detailed inhibition studies using 0.001-4 μM inhibitor were performed in quartz cuvettes and the assay mixture of 500 μL containing E. coli TrxR (6 nM), E. coli Trx (1 or 2 or 4 μM), NADPH (240 μM), and DTNB (1 mM using Zeiss or Ultrospec 3000 Uv-visible spectrophotometer. E. coli TrxR activities were subsequently determined using the standard DTNB assay.
as §1

gshA^- DHB4 E. coli = assay: Bacterial inhibition by ebselen derivates, MIC; settings: LB, 37° C., 4 hrs, OD600 below 10% of DMSO control
Procedure: as §4

Mammalian TrxR [3] = molecular target: Mammalian TrxR (Bos taurus (Bovine), UniProt O62768); assay: Compounds as substrates of mammalian (calf thymus) TrxR, NADPH consumption; assay type: biochemical
Procedure: FIGS. 6A and 6B show ebselen and its sulphur analogue, PZ25, as substrates of calf-thymus TrxR and PZ25 as substrate of E. coli TrxR. In FIG. 6A, 10 μM of ebselen (▴) and 10 μM of PZ25 (▪) were used as substrate of 25 nM calf thymus TrxR. In FIG. 6B, 10 μM of PZ25 was used as substrate for 10 nM calf thymus TrxR (◯) and 10 nM of E. coli TrxR (●). Reactions were started by adding enzymes in cuvettes containing 500 μl TE buffer with 100 μM NADPH, of which the consumption were followed by the changes of the absorption at 340 nm against identical blank without enzymes.
Ebselen diselenide (Δ) and PZ25 disulfide (◯) were reduced with 10 nM calf thymus TrxR, while PZ25 disulphide was reduced by 10 nM of E. coli TrxR (●). Reactions were started by adding enzymes to cuvettes containing 500 μl TE buffer with 100 μM NADPH and 16 μM compounds. The NADPH consumption was followed by the changes of the absorption at 340 nm against identical blank without enzymes.
(§2) The activity of the enzyme was determined at room temperature using an Ultrospec 3000 UV/Visual spectrophotometer (Amersham Biosciences). Measurements of TrxR activity from both calf thymus and E. coli were performed in a buffer containing 50 mM Tris-Cl, 1 mM EDTA, pH 7.5, generally with 100 μM NADPH and the indicated amount of the drugs. The enzyme-catalysed reactions were followed at 340 nm using the standard calculation of NADPH oxidation to NADP^+ with a molar extinction coefficient of 6200 M^−1 cm^−1 (32, 34). The conditions of the assay of bacterial thioredoxin reductase have been described (32, 34) using either 1 mM DTNB or 160 μM insulin as a substrate. In DTNB coupled assays, 240 μM NADPH and 1 mM DTNB were used in the TE buffer and formation of the TNB was measured at 412 nm, where TNB has an extinction coefficient of 13600 M^−1 cm^−1.

E. coli TrxR [4] = molecular target: T1, E. coli TrxR; assay type: biochemical
Procedure: In FIG. 6A, 10 μM of ebselen (▴) and 10 μM of PZ25 (▪) were used as substrate of 25 nM calf thymus TrxR. In FIG. 6B, 10 μM of PZ25 was used as substrate for 10 nM calf thymus TrxR (◯) and 10 nM of E. coli TrxR (●). Reactions were started by adding enzymes in cuvettes containing 500 μl TE buffer with 100 μM NADPH, of which the consumption were followed by the changes of the absorption at 340 nm against identical blank without enzymes.
Reactions were started by adding enzymes to cuvettes containing 500 μl TE buffer with 100 μM NADPH and 16 μM compounds. The NADPH consumption was followed by the changes of the absorption at 340 nm against identical blank without enzymes.
as §2, with “Measurements of TrxR activity from both calf thymus and E. coli were performed in a buffer containing 50 mM Tris-Cl, 1 mM EDTA, pH 7.5, generally with 100 μM NADPH and the indicated amount of the drugs.” left out
(§3) Further we examined the effect of ebselen in the reduction of disulphide by E. coli Trx and TrxR using both DTNB and insulin as substrates. […] FIGS. 4A and 4B show the effect of ebselen (4A) and ebselen diselenide (4B) on DTNB reduction by E. coli thioredoxin and thioredoxin reductase. Assays in semi-microcuvettes with 0.5 ml solution contained 0.24 mM NADPH, 1 mM DTNB in 50 mM Tris-Cl/1 mM EDTA, pH 7.5 buffer. (A) In the presence of 2 μM (grey filled points), 5 μM (white filled points) and 10 μM (black filled points) of E. coli Trx and 7.6 nM of E. coli TrxR with ebselen at concentrations of zero (squares), 0.5 μM (triangles), 1 μM (rhombus), and 2 μM (rounds), the increase in A412 was measured against a blank. (B) In the presence of 2 μM (grey filled points), 5 μM (white filled points) and 10 μM (black filled points) of E. coli Trx and 10 nM of E. coli TrxR, with ebselen diselenide at concentrations of zero (squares), 1 μM (triangles) and 2 μM (rounds), the increase in A412 was measured against a blank.

E. coli TrxR [5] = molecular target: T1, E. coli TrxR; assay: Inhibition of E. coli TrxR reduction of Trx, DTNB coupled assay (Lineweaver-Burk); assay type: biochemical
Procedure: FIGS. 4A and 4B show the effect of ebselen (FIG. 4A) and ebselen diselenide (FIG. 4B) on DTNB reduction by E. coli thioredoxin and thioredoxin reductase. Assays were contained in 0.50 ml semi-microcuvettes containing 0.24 mM NADPH, 1 mM DTNB in 0.10 M Tris-Cl, pH 8.0, 1 mM EDTA. The increase in A412 was measured against a blank using 10 nM E. coli TrxR in the presence of 2 μM (grey filled points), 5 μM (white filled points), 10 μM (black filled points) E. coli Trx with 0 (squares), 0.5 μM (triangles), 1 μM (rhombus), 2 μM (rounds) of ebselen or ebselen diselenide.
(A) Ebselen concentrations were 0 μM (▴), 0.5 μM (∀), 1 μM (▪) and 2 μM (Δ). […] (B) Ebselen concentrations were 0 μM (▴), 1 μM (▪) and 2 μM (∀).
as §2, with “Measurements of TrxR activity from both calf thymus and E. coli were performed in a buffer containing 50 mM Tris-Cl, 1 mM EDTA, pH 7.5, generally with 100 μM NADPH and the indicated amount of the drugs.” left out
as §3

H. pylori strains = assay: Inhibition of the growth of H. pylori by PZ-25 (ebsulfur); assay type: cell-based
H. pylori TrxR = H. pylori TrxR (Helicobacter pylori (strain ATCC 700392 / 26695) (Campylobacter pylori), UniProt P56431); assay: Inhibition of H. pylori TrxR by ebsulfur, insulin reduction assay; assay type: biochemical; settings: 4, 20, and 40 μM
Procedure: H. pylori TrxR activity was followed by insulin reduction after 4 μM of H. pylori Trx addition, where a decrease in absorbance at 340 nm represents activity.

Staphylococcus aureus = settings: compared with PZ51; cited from earlier work
Mammalian TrxR [6] = settings: from reference; cited from earlier work
E. coli Trx-(SH)2 = E. coli Trx-(SH)2 (Escherichia coli (strain K12), UniProt P0AA25); settings: fluorescence spectroscopy; cited from earlier work
[7] = 100 nM TrxR, 2 μM Trx, 1 mM DTNB, read-out: IC50 for E. coli TrxR
[8] = 6 nM TrxR, Trx 1, 2 or 4 μM, Dixon plot, read-out: Ki for E. coli TrxR

T1 sequence (P0A9P4 2-321 limits assumed): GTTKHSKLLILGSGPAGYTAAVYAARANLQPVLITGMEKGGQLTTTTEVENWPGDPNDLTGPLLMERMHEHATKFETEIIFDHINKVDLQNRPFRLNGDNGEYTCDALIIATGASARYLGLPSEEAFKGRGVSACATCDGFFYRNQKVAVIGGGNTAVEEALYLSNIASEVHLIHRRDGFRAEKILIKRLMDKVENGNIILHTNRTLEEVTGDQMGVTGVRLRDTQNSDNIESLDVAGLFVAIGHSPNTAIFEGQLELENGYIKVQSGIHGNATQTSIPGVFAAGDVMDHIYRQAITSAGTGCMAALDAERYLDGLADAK
Sequence of Mammalian TrxR (Bos taurus (Bovine), UniProt O62768) (O62768 whole entry, looked up): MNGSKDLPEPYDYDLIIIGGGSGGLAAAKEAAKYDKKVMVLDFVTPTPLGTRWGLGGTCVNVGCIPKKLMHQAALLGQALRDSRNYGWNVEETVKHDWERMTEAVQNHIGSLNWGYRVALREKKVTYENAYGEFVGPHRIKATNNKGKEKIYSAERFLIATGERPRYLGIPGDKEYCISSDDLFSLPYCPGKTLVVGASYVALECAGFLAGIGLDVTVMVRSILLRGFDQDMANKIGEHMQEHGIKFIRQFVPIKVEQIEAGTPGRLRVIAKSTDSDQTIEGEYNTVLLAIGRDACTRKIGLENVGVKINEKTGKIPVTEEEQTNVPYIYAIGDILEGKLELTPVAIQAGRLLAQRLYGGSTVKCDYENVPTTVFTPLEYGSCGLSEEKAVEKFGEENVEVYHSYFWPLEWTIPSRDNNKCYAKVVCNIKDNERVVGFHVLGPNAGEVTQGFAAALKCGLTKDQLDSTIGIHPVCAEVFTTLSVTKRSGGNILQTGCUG
Sequence of H. pylori TrxR (P56431 whole entry, looked up): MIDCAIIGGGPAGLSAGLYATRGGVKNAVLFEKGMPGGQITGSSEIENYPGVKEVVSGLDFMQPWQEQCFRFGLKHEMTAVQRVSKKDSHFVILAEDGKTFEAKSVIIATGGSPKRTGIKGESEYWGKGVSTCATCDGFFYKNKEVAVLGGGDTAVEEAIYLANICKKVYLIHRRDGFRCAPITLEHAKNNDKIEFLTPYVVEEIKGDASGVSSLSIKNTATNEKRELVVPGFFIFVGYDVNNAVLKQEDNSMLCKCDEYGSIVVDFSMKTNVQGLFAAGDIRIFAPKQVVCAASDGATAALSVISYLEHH

SMILES: O=c1c2ccccc2[se]n1-c1ccc(Cl)cc1 [EbSe 7]
- MIC (wild type DHB4 E. coli): 34 µM (≈ 10.5 µg/mL)
- MIC (Gor^- DHB4 E. coli): 23 µM (≈ 7.1 µg/mL)

SMILES: Cc1cc(Cl)ccc1-n1[se]c2ccccc2c1=O [EbSe 8]
- MIC (wild type DHB4 E. coli): 47 µM (≈ 15.2 µg/mL)
- MIC (Gor^- DHB4 E. coli): 24 µM (≈ 7.74 µg/mL)

SMILES: O=C(O)c1ccccc1-n1[se]c2ccccc2c1=O [EbSe 9]
- IC50 (E. coli TrxR [1]): 7500 nM
- Ki (E. coli TrxR [2]): 1200 nM
- MIC (wild type DHB4 E. coli): 49 µM (≈ 15.6 µg/mL)
- MIC (Gor^- DHB4 E. coli): 31 µM (≈ 9.86 µg/mL)

SMILES: O=C(O)c1ccc(-n2[se]c3ccccc3c2=O)cc1 [EbSe 10]
- IC50 (E. coli TrxR [1]): 15000 nM

SMILES: O=c1c2ccccc2[se]n1-c1ccc(Cl)cn1 [EbSe 11]
- IC50 (E. coli TrxR [1]; [7]): > 40000 nM
- MIC for wild type DHB4 E. coli (wild type DHB4 E. coli): No Inhibition
- MIC for gshA^- DHB4 E. coli (gshA^- DHB4 E. coli): No Inhibition
- MIC for Gor^- DHB4 E. coli (Gor^- DHB4 E. coli): No Inhibition

SMILES: O=c1c2ccccc2[se]n1-c1ncccc1[N+](=O)[O-] [EbSe 12]
- IC50 (E. coli TrxR [1]; [7]): 3000 nM
- Ki (E. coli TrxR [2]; [8]): 250 nM
- MIC for wild type DHB4 E. coli (wild type DHB4 E. coli): No Inhibition
- MIC for gshA^- DHB4 E. coli (gshA^- DHB4 E. coli): No Inhibition
- MIC for Gor^- DHB4 E. coli (Gor^- DHB4 E. coli): No Inhibition

SMILES: O=c1c2ccccc2[se]n1-c1ccncc1 [EbSe 13]
- MIC (wild type DHB4 E. coli): 45 µM (≈ 12.4 µg/mL)
- MIC (Gor^- DHB4 E. coli): 24 µM (≈ 6.6 µg/mL)

SMILES: O=c1c2ccccc2[se]n1CCn1[se]c2ccccc2c1=O [EbSe 14]
- sensitivity of gshA^− or gor^− strains compared with wt strain (wild type DHB4 E. coli): same sensitivity
- MIC (wild type DHB4 E. coli): 23 µM (≈ 9.71 µg/mL)
- MIC (Gor^- DHB4 E. coli): 19 µM (≈ 8.02 µg/mL)

SMILES: O=c1c2ccccc2[se]n1CCCn1[se]c2ccccc2c1=O [EbSe 15]
- Ki (E. coli TrxR [2]; [8]): 40 nM

SMILES: O=c1c2ccccc2[se]n1CCCCCCn1[se]c2ccccc2c1=O [EbSe 16]
- sensitivity of gshA^− or gor^− strains compared with wt strain (wild type DHB4 E. coli): same sensitivity
- MIC (wild type DHB4 E. coli): 20 µM (≈ 9.57 µg/mL)
- MIC (Gor^- DHB4 E. coli): 35 µM (≈ 16.7 µg/mL)

SMILES: O=C(Nc1ccccc1)c1ccccc1SSc1ccccc1C(=O)Nc1ccccc1 [PZ25 disulphide]
- Km (Mammalian TrxR [3]): 47 µM
- kcat (Mammalian TrxR [3]): 25 s⁻¹
- kcat/KM (Mammalian TrxR [3]): 533000 M⁻¹ s⁻¹
- Km (E. coli TrxR [4]; E. coli TrxR): 27.6 µM
- kcat (E. coli TrxR [4]; E. coli TrxR): 1.67 s⁻¹
- kcat/KM (E. coli TrxR [4]; E. coli TrxR): 60500 M⁻¹ s⁻¹

SMILES: O=c1c2ccccc2sn1-c1ccccc1 [PZ25]
- inhibition of E. coli TrxR (in words) (E. coli TrxR [5]): not inhibitors
- Km (Mammalian TrxR [3]): 2.5 µM
- kcat (Mammalian TrxR [3]): 23.33 s⁻¹
- kcat/KM (Mammalian TrxR [3]): 9.33e+06 M⁻¹ s⁻¹
- kcat (E. coli TrxR [4]; E. coli TrxR): 11.7 s⁻¹
- kcat/KM (E. coli TrxR [4]; E. coli TrxR): 4.67e+06 M⁻¹ s⁻¹
- MIC (H. pylori strains; NCTC11637 strain): 1.56 µg/mL (≈ 6.86 µM)
- MIC (H. pylori strains; strain YS-16): 0.39 µg/mL (≈ 1.72 µM)
- H. pylori TrxR activity (H. pylori TrxR): inhibited
- antibacterial activity of the sulphur analogue (Staphylococcus aureus): lost the antibacterial activity

SMILES: O=C(Nc1ccccc1)c1ccccc1[Se][Se]c1ccccc1C(=O)Nc1ccccc1 [ebselen diselenide]
- inhibition of E. coli TrxR (in words) (E. coli TrxR [5]): strongly inhibited
- Ki (E. coli TrxR [5]; Ki (competitive inhibitor of Trx reduction by E. coli TrxR), from Lineweaver-Burk slopes): 460 ± 50 nM
- Ki (E. coli TrxR [5]; read-out: Ki (competitive inhibitor of Trx reduction by E. coli TrxR), from Lineweaver-Burk slopes): 460 nM
- oxidation of NADPH when directly added to E. coli TrxR and NADPH (E. coli TrxR [4]): no oxidations of NADPH
- Km (Mammalian TrxR [6]): 40 µM
- kcat (Mammalian TrxR [6]): 1.32 s⁻¹
- kcat/KM (Mammalian TrxR [6]): 33000 M⁻¹ s⁻¹
- second-order rate constant of reaction with reduced E. coli Trx (E. coli Trx-(SH)2): 1700 M⁻¹ s⁻¹
